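The compound was tested at five concentrations on cells cultured in 96-well plates, with a 48-hour exposure period. GI50 = concentration required for 50% inhibition of growth. TGI: concentration producing complete growth inhibition.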
What was measured:
Experiment in all cases: NCI anticancer screen, dose series, 48 h
[1] = system: LOX IMVI melanoma
[2] = system: 786-0 renal
[3] = system: SNB-19 CNS
[4] = system: SN12C renal
[5] = system: SK-OV-3 ovarian
[6] = system: MCF7 breast
[7] = system: HCT-15 colon
[8] = system: NCI-H23 lung
[9] = system: CCRF-CEM leukemia
[10] = system: EKVX NSCLC

| Structure (SMILES) | GI50 [1] | TGI [1] | GI50 [2] | TGI [2] | GI50 [3] | TGI [3] | GI50 [4] | TGI [4] | GI50 [5] | TGI [5] | GI50 [6] | TGI [6] | GI50 [7] | TGI [7] | GI50 [8] | TGI [8] | GI50 [9] | TGI [9] | GI50 [10] | TGI [10] |
| --- | --- | --- | --- | --- | --- | --- | --- | --- | --- | --- | --- | --- | --- | --- | --- | --- | --- | --- | --- | --- |
| COc1cc(C2NC(=O)C(C#N)=C(Nc3cccc(C)c3)S2)ccc1O (centres undefined) | > 100 µM | > 100 µM | > 100 µM | > 100 µM | > 100 µM | > 100 µM | > 100 µM | > 100 µM | > 100 µM | > 100 µM | > 100 µM | > 100 µM | > 100 µM | > 100 µM | > 100 µM | > 100 µM | > 100 µM | > 100 µM | > 100 µM | > 100 µM |
| COc1ccc(-c2[nH]ncc2Nc2cc(OC)c(OC)c(OC)c2)cc1 | 6.13 µM | > 100 µM | 6.2 µM | > 65.4 µM | 4.86 µM | > 100 µM | 7.18 µM | > 100 µM | 3.09 µM | > 77.8 µM | 0.736 µM | > 100 µM | 0.702 µM | > 100 µM | 4.04 µM | > 100 µM | 1.5 µM | 19.4 µM | 1.93 µM | > 49.4 µM |
| COC(=O)c1cc2cc(/C=C3/SC(=S)N(N(C(C)=O)C(C)=O)C3=O)oc2n1Cc1ccccc1 | 13.9 µM | 31.4 µM | 21.1 µM | 38.6 µM | 27.3 µM | > 100 µM | 20.7 µM | 56 µM | 37.4 µM | 89.9 µM | 34.1 µM | > 100 µM | 15 µM | 52.1 µM | 21.4 µM | 44.6 µM | 32.3 µM | > 100 µM | 31 µM | > 100 µM |
| COc1ccc2nc3ccccc3c(NCCNCC(C)O)c2c1 (centres undefined) | 0.202 µM | 0.483 µM | 0.306 µM | 1.83 µM | 0.391 µM | 10.3 µM | 0.253 µM | 2.22 µM | 0.612 µM | 9.12 µM | 0.315 µM | 4.14 µM | 0.461 µM | 10.6 µM | 0.367 µM | 2.05 µM | 0.436 µM | 3.47 µM | 1.1 µM | 7.82 µM |
| CCOCCOCCOCCOCCOCCOCCOCCOCCOCCO (tested in a mixture with another compound) | 0.81 µM | 2.9 µM | 2.83 µM | 14.4 µM | – | – | – | – | 3.91 µM | 13.4 µM | 1.04 µM | 4.58 µM | – | – | 0.957 µM | 5.32 µM | 1.06 µM | > 32.5 µM | 1.26 µM | 9.62 µM |
| O=C(CI)Nc1ccc(Br)cc1 | 0.326 µM | 1.46 µM | 2.23 µM | 4.62 µM | 15.1 µM | 33.5 µM | – | – | 1.99 µM | 3.99 µM | 1.91 µM | 3.95 µM | 2.09 µM | 5.13 µM | 1.87 µM | 4.61 µM | 1.75 µM | > 100 µM | 2.25 µM | 5.85 µM |
| CC(=O)c1c(C)c2cnc(Nc3ccc(N4CCNCC4)cn3)nc2n(C2CCCC2)c1=O | 1.46 µM | 19.7 µM | 5.04 µM | 20.7 µM | 11.7 µM | 25.4 µM | 7.37 µM | 21.6 µM | 9.73 µM | 22.1 µM | 0.585 µM | 18.7 µM | 4.41 µM | 20 µM | 11.1 µM | 27 µM | 0.707 µM | > 50.6 µM | 12.5 µM | 26.3 µM |
| CCOC(=O)/C=C1/SC(=Nc2ccc(C#N)cc2)N(Cc2ccco2)C1=O | 1.72 µM | 3.32 µM | 1.93 µM | 4.17 µM | 3.83 µM | 13.8 µM | 2.45 µM | 6.76 µM | 14.1 µM | 29.9 µM | 2.7 µM | 12.7 µM | 2.02 µM | 5.13 µM | 10.6 µM | 34.5 µM | 3.17 µM | > 100 µM | 5.66 µM | 30.2 µM |
| Cc1cc(N(CCNc2ccnc3cc(Cl)ccc23)Cc2ccc3c(c2)OCO3)nc(N2CCCC2)n1 | 1.6 µM | 3.16 µM | 1.33 µM | 2.85 µM | 2.53 µM | 11.3 µM | 1.5 µM | 3.87 µM | 2.63 µM | 8.15 µM | 1.49 µM | 4.19 µM | 1.22 µM | 3.18 µM | 2 µM | 6.25 µM | 1.57 µM | 9.09 µM | 2.74 µM | 14.2 µM |
| COc1cc(-c2ccc[nH]2)[nH]c1/C=C1\N=C(C)C(CC(=O)OCC(C)(C)C)=C1C | 0.0733 µM | 0.467 µM | 0.3 µM | 1.53 µM | 0.468 µM | 2.51 µM | – | – | 0.442 µM | 2.02 µM | 0.175 µM | 1.25 µM | 0.211 µM | 1.12 µM | 0.441 µM | 2.22 µM | 0.0625 µM | 2.12 µM | 0.0903 µM | 1.7 µM |
| O=C1NC(=NCCc2ccc(Br)cc2)S/C1=C\c1ccc2ncccc2c1 | > 25 µM | > 25 µM | > 25 µM | > 25 µM | > 25 µM | > 25 µM | > 25 µM | > 25 µM | > 25 µM | > 25 µM | 22.1 µM | > 25 µM | > 22.3 µM | > 25 µM | > 25 µM | > 25 µM | 21.1 µM | > 25 µM | – | – |
| Clc1ccc(-c2nc(NCc3ccco3)c3ccccc3n2)c(Cl)c1 | 8.98 µM | 26.8 µM | 20 µM | 56.1 µM | 38.4 µM | > 100 µM | 16.1 µM | 44.9 µM | 18.6 µM | > 100 µM | 6.38 µM | > 100 µM | 13.1 µM | 42.7 µM | 17.1 µM | 60.5 µM | 10.5 µM | > 100 µM | – | – |
| CCCCCCCCN=C(NCCCCCCCC)SCc1cccc2ccccc12 | 1.59 µM | 3.08 µM | 1.24 µM | 2.7 µM | 1.83 µM | 3.45 µM | 1.27 µM | 2.63 µM | – | – | 1.34 µM | 2.8 µM | 1.19 µM | 3.09 µM | 1.14 µM | 2.52 µM | 2.35 µM | 9.69 µM | 1.79 µM | 3.49 µM |
